Reference: PubChem BioAssay (NCI)
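All cell lines were grown in 96-well plates and treated with compound for 48 hours. Abbreviation: GI50, concentration required for 50% inhibition of growth. TGI denotes the concentration required for complete inhibition of growth.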

Tests used:
Assay in all cases: NCI-60 cell line screen, 48 h
[1] = tested on: CAKI-1 renal
[2] = tested on: CCRF-CEM leukemia
[3] = tested on: HCT-15 colon
[4] = tested on: IGROV1 ovarian
[5] = tested on: NCI-H226 lung
[6] = tested on: OVCAR-3 ovarian
[7] = tested on: RXF 393 renal
[8] = tested on: SF-539 CNS
[9] = tested on: SNB-19 CNS
[10] = tested on: SNB-75 CNS

Compound | GI50 [1] [µM] | TGI [1] [µM] | GI50 [2] [µM] | TGI [2] [µM] | GI50 [3] [µM] | TGI [3] [µM] | GI50 [4] [µM] | TGI [4] [µM] | GI50 [5] [µM] | TGI [5] [µM] | GI50 [6] [µM] | TGI [6] [µM] | GI50 [7] [µM] | TGI [7] [µM] | GI50 [8] [µM] | TGI [8] [µM] | GI50 [9] [µM] | TGI [9] [µM] | GI50 [10] [µM] | TGI [10] [µM]
COCc1c(-c2ccc(NC(=O)Nc3cc(C(F)(F)F)ccc3F)c(F)c2)c2c(N)ncnn2c1CN1CCOCC1 | 1.9 | > 10 | 1.95 | 7.96 | 1.74 | > 10 | 0.438 | 7.06 | 0.0747 | 5.25 | 3.37 | > 10 | 0.236 | 1.43 | 0.283 | 2.64 | 2.93 | > 10 | 0.492 | 3.25
C=CCN(N=O)C(=O)NCCCCC(NC(C)=O)C(=O)NCc1ccccc1 (stereo not given) |  | > 100 |  | > 100 |  | > 100 |  | > 100 |  | > 100 |  | > 100 |  | > 100 |  | > 100 |  | > 100 |  | > 100
COC1=CC(=O)c2nc(Cl)ccc2C1=O | 1.91 | 3.74 | 2.23 | > 100 | 2.03 | 4.55 | 1.86 | 3.54 | 7.61 | 21.5 | 1.79 | 3.19 | 1.58 | 2.97 | 1.62 | 3.03 | 13.7 | 28 | 1.35 | 2.73
COc1ccc2nc(NC(=O)C(=O)NNC(=O)c3ccncc3)sc2c1 |  | > 100 |  | > 100 |  | > 100 |  | > 100 |  | > 100 |  | > 100 |  | > 100 |  | > 100 |  | > 100 |  | > 100
COc1cc2c(cc1C)NC(=O)/C2=C\c1c[nH]c2ccccc12 | 10.6 | 32.3 | 10.3 | > 100 | 7.16 | 25.4 | 4.44 | 33.6 | 15.1 | 41.6 | 15.4 | 62.9 | 7.82 | 47.6 | 14 | 31.9 | 16.4 | 41.7 | 4.12 | 22.9
CCCN1CCC(c2ccc(Nc3nc(Nc4cc(F)ccc4C(N)=O)c4cc[nH]c4n3)c(OC)c2)CC1 | 3.16 | 9.56 | 1.16 | 20.3 | 0.54 | 15.1 | 1.87 | 7.44 | 3.83 | 8.91 | 3.66 | 7.25 | 2.89 | 6.31 | 2.95 | 6.76 | 4.15 | 9.73 | 4 | 7.55
Cn1c2ccccc2c2c(=O)n(CCCC(=O)OC(=NC3CCCCC3)NC3CCCCC3)c3c(-c4ccccc4)nnn3c21 | > 100 | > 100 | > 100 | > 100 | > 100 | > 100 | 15.4 | 94.4 | > 100 | > 100 | > 100 | > 100 | 62.8 | > 100 | 38.4 | > 100 | > 100 | > 100 | 44.6 | > 100
COC(=O)[C@]12CC[C@@H](C)[C@H](C)[C@@H]1C1=CC[C@@H]3[C@@]4(C)C(C=O)=C[C@@](C)(COC(=O)/C=C/c5ccccc5)[C@@H]4[C@H](O)C[C@@]3(C)[C@]1(C)CC2 | 3.56 | > 100 | 2.39 | > 100 | 2.2 | 5.36 | 4.34 | 66.4 | 2.36 | 9.66 | 2.35 | 5.53 | 1.79 | 4.45 | 3.78 | 17.5 | 6.47 | > 100 | 3.37 | 31.5
O=[N+]([O-])c1ccc(Sc2ccncn2)c([N+](=O)[O-])c1 | 0.602 | 1.93 | 0.504 | 6.13 | 3.07 | 9.93 | 2.23 | 5.3 | 7.22 | 23.1 | 1.46 | 2.82 | 3.99 | 11.7 | 2.32 | 6.75 | 10.1 | 23.7 | 2.82 | 13.1
CCOC(=O)C(C(O)c1ccc([N+](=O)[O-])cc1)P(=O)(OCC)OCC (stereo not given) |  | > 100 |  | > 100 |  | > 100 |  | > 100 |  | > 100 |  | > 100 |  | > 100 |  | > 100 |  | > 100 |  | > 100
